# US20240206463A1, “AGROCHEMICAL COMPOSITION” (NOURYON CHEMICALS INTERNATIONAL B.V., priority 2021, published 2024)
# Read-outs that look alike come from different tables or passages of the source.
# Experiments:
# [1] = Diluents lowering the melting point of pelargonic acid: visual appearance (crystal/clear) of pelargonic acid/diluent blends at low temperature
# [2] = Wetting/spreading of a drop on a hydrophobic polystyrene dish; type: physicochemical; conditions: in water (0.5-3.7%)
# Source text: It was unexpectedly discovered that there is a synergy in wetting/spreading between C9 acid and phosphate ester exemplified by PE2 (C1216-30 phosphate ester). […] That is, a drop of the solution balls up with a large contact angle on the dish.
# [3] = pelargonic acid 30 wt % + diluent 70 wt %
# [4] = pelargonic acid 50 wt % + diluent 50 wt %
# [5] = pelargonic acid 60 wt % + diluent 40 wt %
# [6] = pelargonic acid 70 wt % + diluent 30 wt %
# [7] = pelargonic acid 80 wt % + diluent 20 wt %
# [8] = pelargonic acid 65 wt % + diluent 35 wt %
# [9] = pelargonic acid 75 wt % + diluent 25 wt %
Structure (SMILES),diluent amount required to lower the melting point of pelargonic acid to 0° C. (or lower) [1] [%],"appearance at 0° C. [1, 3]","appearance at −20° C. [1, 3]","appearance at 0° C. [1, 4]","appearance at −20° C. [1, 4]","appearance at 0° C. [1, 5]","appearance at −20° C. [1, 5]","appearance at 0° C. [1, 6]","appearance at −20° C. [1, 6]","appearance at 0° C. [1, 7]","appearance at −20° C. [1, 7]","appearance at 0° C. [1, 8]","appearance at −20° C. [1, 8]","appearance at 0° C. [1, 9]","appearance at −20° C. [1, 9]",ability to wet a hydrophobic polystyrene dish [2],appearance at 0° C. [1],appearance at −20° C. [1]
"CCCCC(CC)C(=O)O (stereo not drawn) [2-EH acid, 2-ethyhexanoic acid]",30,Clear,Clear,Clear,Crystal,Clear,Crystal,Clear,Crystal,Crystal,Crystal,,,,,,,
"CCCCC(CC)CO (stereo not drawn) [2-EH alcohol, 2-ethylhexanol]",30,Clear,Clear,Clear,Crystal,Clear,Crystal,Clear,Crystal,Crystal,Crystal,,,,,,,
CCCCOC(C)=O [Butyl Acetate],,Clear,Clear,Clear,Crystal,,,Clear,Crystal,,,Clear,Crystal,Clear,Crystal,,,
"CCCCCCCCC(=O)O [C9 acid, pelargonic acid]",,,,,,,,,,,,,,,,not able to wet,,
CCCCCCC(=O)O [Heptanoic acid],25,,,,,,,,,,,,,Clear,Crystal,,,
COC(=O)c1ccccc1 [Methyl benzoate],,,,,,,,,,,,,,,,,Clear,Crystal
COC(=O)c1ccccc1O [Methyl salicylate],35,,,Clear,Crystal,,,Crystal,Crystal,,,Clear,Crystal,Crystal,Crystal,,,
CCCCCCCCOC(=O)C(C)O (stereo not drawn) [Octyl lactate],30,Clear,Crystal,Clear,Crystal,,,Crystal,Crystal,,,Crystal,Crystal,Crystal,Crystal,,,
"CCCCC(=O)O [Valeric C5 acid, valeric acid]",30,,,,,,,Clear,Crystal,,,,,,,,,
C=C(C)[C@H]1CC=C(C)CC1 [d-limonene],,Clear,Clear,Clear,Crystal,,,Clear,Crystal,,,Clear,Crystal,Crystal,Crystal,,,
CCOP(=O)(OCC)OCC [triethylphosphate],,,,,,,,,,,,,,,,,Clear,
